Columns and labels:
[1] = target: Platelet-derived growth factor receptor alpha (Homo sapiens, UniProt P16234); assay: Inhibition of human PDGFRalpha using poly[Glu:Tyr] (4:1) as substrate preincubated for 20 mins followed by [gamma-33P]-ATP addition and measured after 120 mins by Hotspot assay
[2] = target: Macrophage colony-stimulating factor 1 receptor (Homo sapiens, UniProt P07333); assay: Binding affinity to wild-type human partial length CSF1R (I564 to S939 residues) expressed in bacterial expression system after 60 mins by Kinomescan method
[3] = target: CDK1/Cyclin A (Homo sapiens) (UniProt P06493+P20248); assay: Inhibition of human CDK1/Cyclin-A assessed as residual activity at 10 uM using Histone H1 as substrate preincubated for 20 mins followed by [gamma-33P]-ATP addition and measured after 120 mins by Hotspot assay relative to control; format: protein-complex assay
[4] = target: Cyclin-dependent kinase 5/CDK5 activator 1 (Homo sapiens) (UniProt Q00535+Q15078); assay: Inhibition of human CDK5/p25 assessed as residual activity at 10 uM using histone H1 as substrate preincubated for 20 mins followed by [gamma-33P]-ATP addition and measured after 120 mins by Hotspot assay relative to control; format: protein-complex assay
MV4-11 [5] = assay: Induction of apoptosis in human MV4-11 cells assessed as early apoptotic cells at 0.5 uM after 24 hrs by Annexin V-FITC/propidium iodide staining based flow cytometric analysis (reference value: 3.39%); format: functional
[6] = target: T1, Tyrosine-protein kinase ABL1 (Homo sapiens, UniProt P00519); assay: Inhibition of human ABL1 using EAIYAAPFAKKK as substrate preincubated for 20 mins followed by [gamma-33P]-ATP addition and measured after 120 mins by Hotspot assay
MOLM-13 = assay: Growth inhibition of human MOLM13 cells harboring FLT3 ITD mutant at 10 uM after 72 hrs by CellTiter-Glo assay relative to control; format: functional; details: MOLM-13, 72 h, read-out: GI
[7] = target: Proto-oncogene tyrosine-protein kinase Src (Homo sapiens, UniProt P12931); assay: Inhibition of human c-SRC assessed as residual activity at 10 uM using poly[Glu:Tyr] (4:1) as substrate preincubated for 20 mins followed by [gamma-33P]-ATP addition and measured after 120 mins by Hotspot assay relative to control
[8] = target: T2, Tyrosine-protein kinase ABL1 (Homo sapiens, UniProt P00519, Q252H); assay: Binding affinity to human non-phosphorylated ABL1 Q252H mutant (S229 to K512 residues) expressed in mammalian expression system after 60 mins by Kinomescan method
[9] = target: Hepatocyte growth factor receptor (Homo sapiens) (UniProt P08581); assay: Inhibition of human c-MET assessed as residual activity at 10 uM using KKKSPGEYVNIEFG as substrate preincubated for 20 mins followed by [gamma-33P]-ATP addition and measured after 120 mins by Hotspot assay relative to control
[10] = target: Discoidin domain-containing receptor 2 (Homo sapiens, UniProt Q16832); assay: Inhibition of human DDR2 using KKSRGDYMTMQIG as substrate preincubated for 20 mins followed by [gamma-33P]-ATP addition and measured after 120 mins by Hotspot assay
MV4-11 [11] = assay: Induction of apoptosis in human MV4-11 cells assessed as late apoptotic cells at 0.5 uM after 24 hrs by Annexin V-FITC/propidium iodide staining based flow cytometric analysis (reference value: 1.42%); format: functional
[12] = target: T1, Tyrosine-protein kinase ABL1; assay: Inhibition of human ABL1 assessed as residual activity at 10 uM using EAIYAAPFAKKK as substrate preincubated for 20 mins followed by [gamma-33P]-ATP addition and measured after 120 mins by Hotspot assay relative to control
MV4-11 [13] = assay: Induction of apoptosis in human MV4-11 cells after 24 hrs by Annexin V-FITC/propidium iodide staining based flow cytometric analysis; format: functional, cell-based
MV4-11 [14] = assay: Growth inhibition of human MV4-11 cells harboring FLT3 ITD mutant at 10 uM after 72 hrs by CellTiter-Glo assay relative to control; format: functional; details: MV4-11, 72 h, read-out: GI
MV4-11 [15] = assay: Induction of apoptosis in human MV4-11 cells assessed as late apoptotic cells at 0.1 uM after 24 hrs by Annexin V-FITC/propidium iodide staining based flow cytometric analysis (reference value: 1.42%); format: functional
MV4-11 [16] = assay: Induction of apoptosis in human MV4-11 cells assessed as late apoptotic cells at 0.02 uM after 24 hrs by Annexin V-FITC/propidium iodide staining based flow cytometric analysis (reference value: 1.42%); format: functional
MV4-11 [17] = assay: Induction of apoptosis in human MV4-11 cells assessed as viable cells at 0.5 uM after 24 hrs by Annexin V-FITC/propidium iodide staining based flow cytometric analysis (reference value: 95.19%); format: functional; details: MV4-11, 24 h, read-out: Activity
[18] = target: Tyrosine-protein kinase ABL1 (Homo sapiens, UniProt P00519, T315I); assay: Binding affinity to human phosphorylated ABL1 T315I mutant (S229 to K512 residues) expressed in mammalian expression system after 60 mins by Kinomescan method
[19] = target: T2, Tyrosine-protein kinase ABL1; assay: Binding affinity to human phosphorylated ABL1 Q252H mutant expressed in mammalian expression system after 60 mins by Kinomescan method
[20] = target: T1, Tyrosine-protein kinase ABL1; assay: Binding affinity to wild-type human non-phosphorylated ABL1 (S229 to K512 residues) expressed in mammalian expression system after 60 mins by Kinomescan method
[21] = target: Serine/threonine-protein kinase B-raf (Homo sapiens) (UniProt P15056); assay: Inhibition of human BRAF assessed as residual activity at 10 uM using MEK1 (K97R) as substrate preincubated for 20 mins followed by [gamma-33P]-ATP addition and measured after 120 mins by Hotspot assay relative to control
MV4-11 [22] = assay: Induction of apoptosis in human MV4-11 cells assessed as late apoptotic cells at 0.2 uM after 24 hrs by Annexin V-FITC/propidium iodide staining based flow cytometric analysis (reference value: 1.42%); format: functional
MV4-11 [23] = assay: Induction of apoptosis in human MV4-11 cells assessed as necrotic cells at 0.05 uM after 24 hrs by Annexin V-FITC/propidium iodide staining based flow cytometric analysis (reference value: 0%); format: functional
MV4-11 [24] = assay: Induction of apoptosis in human MV4-11 cells assessed as early apoptotic cells at 0.05 uM after 24 hrs by Annexin V-FITC/propidium iodide staining based flow cytometric analysis (reference value: 3.39%); format: functional
[25] = Half life in human liver microsomes at 1 uM after 5 to 60 mins in presence of NADPH by LC-MS/MS analysis; format: ADME, Microsome
[26] = target: Tyrosine-protein kinase BTK (Homo sapiens, UniProt Q06187); assay: Inhibition of human BTK assessed as residual activity at 10 uM using KVEKIGEGTYGVVYK as substrate preincubated for 20 mins followed by [gamma-33P]-ATP addition and measured after 120 mins by Hotspot assay relative to control
[27] = target: Tyrosine-protein kinase Lck (Homo sapiens, UniProt P06239); assay: Inhibition of human LCK assessed as residual activity at 10 uM using poly[Glu:Tyr] (4:1) as substrate preincubated for 20 mins followed by [gamma-33P]-ATP addition and measured after 120 mins by Hotspot assay relative to control

Chain of Cyclin-dependent kinase 5/CDK5 activator 1 (Homo sapiens) (Q00535 whole entry): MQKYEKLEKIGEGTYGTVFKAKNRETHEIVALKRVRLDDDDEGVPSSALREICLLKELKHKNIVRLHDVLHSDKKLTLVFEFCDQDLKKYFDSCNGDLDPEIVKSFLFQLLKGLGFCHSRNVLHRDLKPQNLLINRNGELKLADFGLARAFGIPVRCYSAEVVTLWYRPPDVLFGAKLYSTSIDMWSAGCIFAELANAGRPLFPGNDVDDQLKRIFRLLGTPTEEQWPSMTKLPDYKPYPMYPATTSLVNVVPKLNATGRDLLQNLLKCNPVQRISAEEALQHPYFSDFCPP
Chain of Cyclin-dependent kinase 5/CDK5 activator 1 (Homo sapiens) (Q15078 99-307 partner limits assumed): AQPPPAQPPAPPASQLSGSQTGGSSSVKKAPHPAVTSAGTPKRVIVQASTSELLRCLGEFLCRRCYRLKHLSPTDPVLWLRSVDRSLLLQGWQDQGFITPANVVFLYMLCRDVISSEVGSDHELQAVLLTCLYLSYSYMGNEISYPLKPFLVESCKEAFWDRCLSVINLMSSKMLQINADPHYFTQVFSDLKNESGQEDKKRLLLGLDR
Chain of CDK1/Cyclin A (Homo sapiens) (P06493 whole entry, looked up): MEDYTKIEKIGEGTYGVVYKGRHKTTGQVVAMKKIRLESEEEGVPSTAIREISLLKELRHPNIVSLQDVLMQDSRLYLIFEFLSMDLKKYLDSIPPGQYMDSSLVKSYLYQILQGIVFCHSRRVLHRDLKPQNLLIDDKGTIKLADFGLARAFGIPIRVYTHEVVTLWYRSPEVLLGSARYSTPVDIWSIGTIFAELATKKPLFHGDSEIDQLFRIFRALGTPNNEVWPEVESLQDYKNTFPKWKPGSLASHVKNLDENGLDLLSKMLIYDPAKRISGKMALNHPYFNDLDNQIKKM
Chain of CDK1/Cyclin A (Homo sapiens) (P20248 whole entry, looked up): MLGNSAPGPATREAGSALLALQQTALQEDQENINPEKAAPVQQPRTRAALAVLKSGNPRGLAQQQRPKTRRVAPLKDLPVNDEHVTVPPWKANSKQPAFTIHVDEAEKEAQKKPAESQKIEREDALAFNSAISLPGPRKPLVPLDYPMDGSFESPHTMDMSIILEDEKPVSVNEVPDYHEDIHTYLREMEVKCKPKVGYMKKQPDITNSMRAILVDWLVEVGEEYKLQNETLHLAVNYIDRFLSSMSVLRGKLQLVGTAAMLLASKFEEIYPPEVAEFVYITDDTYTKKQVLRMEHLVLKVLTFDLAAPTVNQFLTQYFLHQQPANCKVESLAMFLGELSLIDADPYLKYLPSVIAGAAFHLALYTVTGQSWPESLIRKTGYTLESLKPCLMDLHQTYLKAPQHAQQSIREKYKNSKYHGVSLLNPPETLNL
Chain of Discoidin domain-containing receptor 2 (Q16832 whole entry, the tested form may be a part): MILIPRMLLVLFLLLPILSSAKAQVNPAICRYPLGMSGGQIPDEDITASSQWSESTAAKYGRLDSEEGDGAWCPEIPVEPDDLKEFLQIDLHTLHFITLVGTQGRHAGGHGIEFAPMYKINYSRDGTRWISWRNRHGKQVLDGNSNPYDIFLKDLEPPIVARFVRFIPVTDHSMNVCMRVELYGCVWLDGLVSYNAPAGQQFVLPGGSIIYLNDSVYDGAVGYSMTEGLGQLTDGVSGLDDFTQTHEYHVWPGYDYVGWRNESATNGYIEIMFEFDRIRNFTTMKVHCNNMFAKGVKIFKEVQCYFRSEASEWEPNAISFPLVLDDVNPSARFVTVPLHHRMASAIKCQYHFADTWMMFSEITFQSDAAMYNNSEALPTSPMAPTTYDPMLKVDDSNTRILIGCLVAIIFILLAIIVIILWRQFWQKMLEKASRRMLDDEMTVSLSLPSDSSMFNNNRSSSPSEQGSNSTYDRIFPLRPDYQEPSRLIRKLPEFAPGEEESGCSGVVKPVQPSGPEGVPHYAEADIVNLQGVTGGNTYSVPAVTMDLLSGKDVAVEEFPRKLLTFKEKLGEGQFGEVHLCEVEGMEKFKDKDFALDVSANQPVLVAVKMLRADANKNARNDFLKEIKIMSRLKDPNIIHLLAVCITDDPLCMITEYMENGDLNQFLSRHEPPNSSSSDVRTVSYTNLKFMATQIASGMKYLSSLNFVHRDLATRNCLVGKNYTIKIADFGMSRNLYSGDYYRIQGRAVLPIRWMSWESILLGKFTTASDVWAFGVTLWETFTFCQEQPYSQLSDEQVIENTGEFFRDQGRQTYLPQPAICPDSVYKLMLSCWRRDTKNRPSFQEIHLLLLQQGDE
Chain of Platelet-derived growth factor receptor alpha (P16234 whole entry, the tested form may be a part): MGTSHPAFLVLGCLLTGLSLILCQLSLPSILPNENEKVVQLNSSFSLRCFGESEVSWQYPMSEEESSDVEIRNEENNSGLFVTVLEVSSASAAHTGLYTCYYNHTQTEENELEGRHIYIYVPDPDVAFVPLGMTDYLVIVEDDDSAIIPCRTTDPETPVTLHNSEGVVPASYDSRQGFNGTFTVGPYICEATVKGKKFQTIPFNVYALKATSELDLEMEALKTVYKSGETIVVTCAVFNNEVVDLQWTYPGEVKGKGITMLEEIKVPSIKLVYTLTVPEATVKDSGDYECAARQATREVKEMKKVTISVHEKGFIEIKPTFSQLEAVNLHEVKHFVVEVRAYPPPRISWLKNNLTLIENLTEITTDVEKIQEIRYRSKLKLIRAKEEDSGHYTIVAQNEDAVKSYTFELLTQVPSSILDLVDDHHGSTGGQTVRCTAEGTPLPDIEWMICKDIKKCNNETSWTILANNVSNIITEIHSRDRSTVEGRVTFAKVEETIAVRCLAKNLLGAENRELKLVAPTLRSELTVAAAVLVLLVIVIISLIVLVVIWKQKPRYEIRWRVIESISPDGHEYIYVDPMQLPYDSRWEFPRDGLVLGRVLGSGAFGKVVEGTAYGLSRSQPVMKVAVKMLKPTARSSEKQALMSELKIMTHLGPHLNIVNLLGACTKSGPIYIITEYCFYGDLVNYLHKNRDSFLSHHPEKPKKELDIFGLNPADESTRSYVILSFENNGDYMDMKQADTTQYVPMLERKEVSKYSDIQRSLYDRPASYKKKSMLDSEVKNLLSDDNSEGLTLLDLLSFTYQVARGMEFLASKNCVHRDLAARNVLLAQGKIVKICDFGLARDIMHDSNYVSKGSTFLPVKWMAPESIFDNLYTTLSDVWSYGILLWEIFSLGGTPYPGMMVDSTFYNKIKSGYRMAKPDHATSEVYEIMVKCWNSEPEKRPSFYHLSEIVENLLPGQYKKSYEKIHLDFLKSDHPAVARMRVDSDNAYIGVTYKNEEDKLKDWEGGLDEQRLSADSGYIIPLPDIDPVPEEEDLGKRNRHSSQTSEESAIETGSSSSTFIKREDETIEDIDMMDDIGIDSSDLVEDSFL
Chain of Proto-oncogene tyrosine-protein kinase Src (P12931 2-536 limits assumed): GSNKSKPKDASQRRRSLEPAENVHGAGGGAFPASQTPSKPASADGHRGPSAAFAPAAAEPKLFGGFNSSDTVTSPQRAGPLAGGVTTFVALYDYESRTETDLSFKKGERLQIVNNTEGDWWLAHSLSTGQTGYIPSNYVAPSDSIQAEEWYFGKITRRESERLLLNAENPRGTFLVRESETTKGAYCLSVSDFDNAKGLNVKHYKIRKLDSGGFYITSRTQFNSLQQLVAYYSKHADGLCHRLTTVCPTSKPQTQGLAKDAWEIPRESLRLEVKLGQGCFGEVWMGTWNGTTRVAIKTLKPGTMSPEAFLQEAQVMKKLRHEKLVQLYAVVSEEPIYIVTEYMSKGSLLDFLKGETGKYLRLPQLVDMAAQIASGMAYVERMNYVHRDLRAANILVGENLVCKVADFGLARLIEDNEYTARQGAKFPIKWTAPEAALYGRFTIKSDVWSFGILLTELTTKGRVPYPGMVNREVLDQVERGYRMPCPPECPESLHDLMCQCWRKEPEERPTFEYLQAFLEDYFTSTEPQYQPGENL
Chain of Macrophage colony-stimulating factor 1 receptor (P07333 whole entry, the tested form may be a part): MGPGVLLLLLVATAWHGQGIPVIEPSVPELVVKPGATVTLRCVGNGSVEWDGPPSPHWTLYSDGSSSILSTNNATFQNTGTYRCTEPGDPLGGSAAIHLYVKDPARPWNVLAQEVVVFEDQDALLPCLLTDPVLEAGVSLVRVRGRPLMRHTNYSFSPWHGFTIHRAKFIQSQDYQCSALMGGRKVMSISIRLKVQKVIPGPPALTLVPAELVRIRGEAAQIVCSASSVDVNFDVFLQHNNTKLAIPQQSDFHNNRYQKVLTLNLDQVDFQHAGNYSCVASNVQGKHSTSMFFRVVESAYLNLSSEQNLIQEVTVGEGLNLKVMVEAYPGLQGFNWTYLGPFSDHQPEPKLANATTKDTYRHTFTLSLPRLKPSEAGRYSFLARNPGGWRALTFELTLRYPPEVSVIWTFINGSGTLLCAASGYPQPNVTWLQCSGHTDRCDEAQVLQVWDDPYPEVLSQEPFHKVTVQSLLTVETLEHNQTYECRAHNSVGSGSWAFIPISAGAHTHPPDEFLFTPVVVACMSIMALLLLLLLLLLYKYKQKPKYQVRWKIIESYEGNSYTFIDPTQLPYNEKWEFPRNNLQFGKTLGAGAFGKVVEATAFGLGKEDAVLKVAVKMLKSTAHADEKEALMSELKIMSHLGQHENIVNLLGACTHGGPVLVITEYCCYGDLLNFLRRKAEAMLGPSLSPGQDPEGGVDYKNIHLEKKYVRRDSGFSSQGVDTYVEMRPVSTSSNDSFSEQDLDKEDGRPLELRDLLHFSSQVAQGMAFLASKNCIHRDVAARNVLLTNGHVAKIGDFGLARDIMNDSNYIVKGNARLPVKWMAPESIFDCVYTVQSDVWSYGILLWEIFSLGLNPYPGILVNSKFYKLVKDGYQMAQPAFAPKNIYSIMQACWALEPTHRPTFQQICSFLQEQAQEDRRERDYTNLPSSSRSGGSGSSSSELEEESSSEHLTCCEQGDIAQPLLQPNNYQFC

For `CN1CCC(Nc2ccc(C(=O)Nc3cc(-c4cc(C#N)cs4)n[nH]3)cc2)CC1`, which IC50 [1] is on record?
Its IC50 is 3.64 µM.

And the Kd [2]?
The Kd was 47 nM.

And the Activity [3]?
The Activity was 74.5%.

What about the Activity [4] of the same molecule?
Its Activity is 60.4%.

What about the Activity (MV4-11 [5]) of the same molecule?
The Activity was 28.65%.

What about the IC50 ([6]; read-out: IC50) of the same molecule?
The IC50 was 931 nM.

What about the IC50 ([6]; read-out: pIC50 (converted)) of the same molecule?
Its IC50 is 1000 nM.

And the inhibition of growth at 10 µM (MOLM-13)?
The inhibition of growth at 10 µM was 92.1%.

And the Activity [7]?
Its Activity is 17.9%.

What about the Kd [8] of the same molecule?
Its Kd is 350 nM.

What about the Activity [9] of the same molecule?
Its Activity is 74.5%.

What about the IC50 [10] of the same molecule?
Its IC50 is 3.47 µM.

And the Activity (MV4-11 [11])?
Its Activity is 26.68%.

And the Activity [12]?
Its Activity is 8.32%.

What about the Activity (MV4-11 [13]) of the same molecule?
The Activity was “Dose-dependent effect”.

And the inhibition of growth at 10 µM (MV4-11 [14])?
The inhibition of growth at 10 µM was 89.9%.

What about the Activity (MV4-11 [15]) of the same molecule?
The Activity was 15.97%.

What about the Activity (MV4-11 [16]) of the same molecule?
Its Activity is 11.3%.

And the viability at 0.5 µM (MV4-11 [17])?
The viability at 0.5 µM was 39.8%.

What about the Kd [18] of the same molecule?
Its Kd is 500 nM.

And the Kd [19]?
Its Kd is 300 nM.

And the Kd [20]?
Its Kd is 370 nM.

What about the Activity [21] of the same molecule?
The Activity was 67.7%.

And the Activity (MV4-11 [22])?
Its Activity is 21.77%.

What about the Activity (MV4-11 [23]) of the same molecule?
The Activity was 4.51%.

And the Activity (MV4-11 [24])?
The Activity was 21.04%.

What about the half-life at 1 µM [25] of the same molecule?
The half-life at 1 µM was 61.9 min.

And the Activity [26]?
Its Activity is 12.9%.

And the Activity [27]?
Its Activity is 8.39%.
